The source of these data is the NIST ThermoML archive (doi:10.1021/acs.jced.7b00944).

For this data set the following is noted: 298.2 K, 101.33 kPa, Liquid; for viscosity: Falling or rolling sphere viscometry; for mass density: Vibrating tube method.

Molecules are shown by their SMILES. Numbers after ± are expanded uncertainties.

Usually viscosity stands for the resistance of a fluid to flow. Broadly, the mass density is mass per unit of volume. With `C=C(C)[C@H]1CC=C(C)CC1` [(R)-1-methyl-4-(1-methylethenyl)cyclohexene], the viscosity turned out to be 0.972 ± 0.12 mPa·s and the mass density stood at 840.73 ± 6 kg/m3.

In the case of `C=CC(C)(O)CCC=C(C)C` (stereo not drawn) [3,7-dimethyl-1,6-octadien-3-ol], the viscosity worked out at 4.238 ± 0.51 mPa·s and the mass density is given as 856.25 ± 6.1 kg/m3.

`OCC(O)CO` [glycerol]: the viscosity was 873.6 ± 140 mPa·s and the mass density was found to be 1257.7 ± 6.1 kg/m3.

Take `CCO` [ethanol]: the viscosity came out at 1.04 ± 0.12 mPa·s and the mass density was found to be 786.1 ± 6 kg/m3.
